Results from article PMC4924623 (Molecular cancer therapeutics, 2012).

Target: CB2 receptor (hCB2) (Homo sapiens, UniProt P34972)
Assay: competitive radioligand binding, [3H]CP-55, […] displacement

Chain of CB2 receptor (hCB2) (P34972 whole entry): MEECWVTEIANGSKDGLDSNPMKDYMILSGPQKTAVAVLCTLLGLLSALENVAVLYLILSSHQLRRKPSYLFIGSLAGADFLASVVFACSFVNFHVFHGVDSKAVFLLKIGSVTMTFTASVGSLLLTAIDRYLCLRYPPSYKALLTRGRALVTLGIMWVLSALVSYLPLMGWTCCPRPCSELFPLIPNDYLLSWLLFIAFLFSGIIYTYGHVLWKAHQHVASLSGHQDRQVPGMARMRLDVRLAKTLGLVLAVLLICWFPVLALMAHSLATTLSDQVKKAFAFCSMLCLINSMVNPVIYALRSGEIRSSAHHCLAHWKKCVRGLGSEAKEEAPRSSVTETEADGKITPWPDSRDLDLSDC

**Q.** For C=C(C)[C@@H]1CC[C@]2(C(=O)O)CC[C@]3(C)[C@H](CC[C@@H]4[C@@]5(C)CC[C@H](O)C(C)(C)[C@@H]5CC[C@]43C)[C@@H]12 [BA, Betulinic acid], which Ki is on record?
**A.** Its Ki is 41.2 µM.
